The values below are quoted from earlier work in patent US6491946B1, “Pharmaceutical levothyroxine preparation” (Merck Patent Gesellschaft, priority 1998, dated 2002).

Where two headings read alike, the source gives them in different places.

On to `N[C@@H](Cc1cc(I)c(Oc2cc(I)c(O)c(I)c2)c(I)c1)C(=O)O` [Levothyroxine sodium, levothyroxine sodium], for which the Solubility entry reads like this: (in ethanol) “soluble with great difficulty”; (in water) “soluble with great difficulty”.
